Results on six compounds are retold here after patent US4518587A, “Dipeptides of L-5-hydroxytryptophan, processes for their preparation and drugs in which they are present” (S.A. Panmedica, priority 1983, dated 1985).

Read-outs that look alike come from different tables or passages of the source. Square brackets hold non-standard residues; d marks the D form. Peptide text beside a SMILES is read from it. Trp(5-OH) = N[C@@H](Cc1c[nH]c2ccc(O)cc12)C(=O)O

The assay relates to brain levels of L-5-hydroxytryptophan (L-5-HTP), serotonin (5-HT) and 5-hydroxyindoleacetic acid (5-HIAA). The assay is described as follows: Biochemical analysis of brain levels of L-5-HTP, 5-HT and 5-HIAA one hour after a single dose (technique of CURZON and GREEN). The class given is in vivo, rats. To be noted: for change in vivo at 25 mg/kg / change in vivo at 50 mg/kg / change in vivo at 10 mg/kg: Rattus norvegicus, 1 h; for change in vivo at 10 mg/kg: read-out: %, relative to the controls, of L-5-HTP at dose of 10 mg/kg. The procedure:
Biochemical analysis of the brain levles of L-5-hydroxytryptophan (L-5-HTP), serotonin (5-HT) and its first metabolite, 5-hydroxyindoleacetic acid (5- HIAA), was carried out one hour after the administration of a single dose to adult rats by the technique of CURZON and GREEN. Three doses were studied, i.e. 10, 25 and 50 mg/kg, 10 animals being used per dose. Table I below indicates the percentage increases in 5-HTP, 5-HT and 5-HIAA relative to the levels found in the control animals: […]

The mark [1] stands for this setting: read-out: %, relative to the controls, of 5-HIAA at dose of 25 mg/kg.
Setting [2] is: read-out: %, relative to the controls, of 5-HIAA at dose of 50 mg/kg.
[3] abbreviates: brain level, adult rats, single dose 10 mg/kg, one hour after administration, percentage increase relative to control animals.
[4] abbreviates: brain level, adult rats, single dose 25 mg/kg, one hour after administration, percentage increase relative to control animals.
Setting [5] is: brain level, adult rats, single dose 25 mg/kg, one hour after administration, percentage increase relative to control animals, read-out: %, relative to the controls, of 5-HIAA at dose of 25 mg/kg.
Where [6] appears, read: brain level, adult rats, single dose 25 mg/kg, one hour after administration, percentage increase relative to control animals, read-out: %, relative to the controls, of L-5-HTP at dose of 25 mg/kg.
The mark [7] stands for this setting: brain level, adult rats, single dose 50 mg/kg, one hour after administration, percentage increase relative to control animals, read-out: %, relative to the controls, of 5-HIAA at dose of 50 mg/kg.
[8] abbreviates: brain level, adult rats, single dose 50 mg/kg, one hour after administration, percentage increase relative to control animals, read-out: %, relative to the controls, of 5-HT at dose of 50 mg/kg.
Where [9] appears, read: brain level, adult rats, single dose 50 mg/kg, one hour after administration, percentage increase relative to control animals.

Turning to `N[C@@H](Cc1c[nH]c2ccc(O)cc12)C(=O)N[C@@H](Cc1ccccc1)C(=O)O` [Example 12, 5-HYDROXY-L-TRYPTOPHYL-L-PHENYLALANINE] (H-[Trp(5-OH)]-Phe-OH), the change in vivo at 10 mg/kg turned out to be 170%. In addition, under setting [1], the change in vivo at 25 mg/kg came to 140%. In addition, under setting [2], the change in vivo at 50 mg/kg was 180%. The change in vivo at 50 mg/kg (read-out: %, relative to the controls, of 5-HT at dose of 50 mg/kg) was 25%. The change in vivo at 25 mg/kg (read-out: %, relative to the controls, of L-5-HTP at dose of 25 mg/kg) turned out to be 500%.

As for `C[C@H](NC(=O)[C@@H](N)Cc1c[nH]c2ccc(O)cc12)C(=O)O.O` [Example 8, 5-HYDROXY-L-TRYPTOPHYL-L-ALANINE HYDRATE] (H-[Trp(5-OH)]-Ala-OH), the change in vivo at 10 mg/kg amounted to 200%. Under setting [1], the change in vivo at 25 mg/kg was found to be 140%. Further, the change in vivo at 50 mg/kg under setting [2] stood at 400%. In addition, the “%, relative to the controls, of 5-HIAA at dose of 10 mg/kg” value under setting [3] is recorded as 75%. The “%, relative to the controls, of 5-HT at dose of 25 mg/kg” value under setting [4] was 5%.

Consider `CC(C)C[C@H](NC(=O)[C@@H](N)Cc1c[nH]c2ccc(O)cc12)C(=O)O` [Example 10, 5-HYDROXY-L-TRYPTOPHYL-L-LEUCINE] (H-[Trp(5-OH)]-Leu-OH), for which the change in vivo at 10 mg/kg under setting [3] is 200%. The change in vivo at 25 mg/kg by setting is: under setting [5], 100%; under setting [6], 600%. Further, the change in vivo at 50 mg/kg reads like this: under setting [7], 350%; under setting [8], 45%. Under setting [3], the “%, relative to the controls, of 5-HIAA at dose of 10 mg/kg” value amounted to 55%. Moreover, the “%, relative to the controls, of 5-HT at dose of 25 mg/kg” value under setting [4] worked out at 12%.

For the compound `CCOC(=O)CC[C@H](NC(=O)[C@@H](N)Cc1c[nH]c2ccc(O)cc12)C(=O)OCC.Cl` [Example 3, Diethyl 5-hydroxy-L-tryptophyl-L-glutamate hydrochloride] (H-[Trp(5-OH)]-Glu(OEt)-OEt), under setting [3], the change in vivo at 10 mg/kg amounted to 100%; the “%, relative to the controls, of 5-HIAA at dose of 10 mg/kg” value is 50%; the “%, relative to the controls, of 5-HT at dose of 10 mg/kg” value is recorded as 10%. Further, the change in vivo at 25 mg/kg under setting [5] is 150%. Besides, the change in vivo at 25 mg/kg under setting [6] came out at 400%. Moreover, under setting [7], the change in vivo at 50 mg/kg is 200%. Further, the change in vivo at 50 mg/kg under setting [8] was found to be 200%.

Take “5-Hydroxy-L-tryptophyl-5-hydroxy-L-tryptophan hemihydrate [Example 13]”: under setting [4], the “%, relative to the controls, of 5-HT at dose of 25 mg/kg” value stood at 5% and the “%, relative to the controls, of L-5-HTP at dose of 25 mg/kg” value worked out at 50%. In addition, under setting [9], the “%, relative to the controls, of 5-HIAA at dose of 50 mg/kg” value is recorded as 10%; the “%, relative to the controls, of 5-HT at dose of 50 mg/kg” value is 5%; the “%, relative to the controls, of L-5-HTP at dose of 50 mg/kg” value is on record as 50%.

Take `N[C@@H](Cc1c[nH]c2ccc(O)cc12)C(=O)NCC(=O)O` [Example 19, 5-HYDROXY-L-TRYPTOPHYLGLYCINE] (H-[Trp(5-OH)]-Gly-OH): the change in vivo at 25 mg/kg by setting is: under setting [5], 170%; under setting [6], 700%. For the same compound, the change in vivo at 50 mg/kg reads like this: under setting [7], 350%; under setting [8], 30%. For the same compound, the “%, relative to the controls, of 5-HIAA at dose of 10 mg/kg” value under setting [3] amounted to 75%. In addition, the “%, relative to the controls, of 5-HT at dose of 10 mg/kg” value under setting [3] is reported as 30%. The “%, relative to the controls, of 5-HT at dose of 25 mg/kg” value under setting [4] was 12%.
